This is an account of results in patent US20040091937A1, “Use of fluorine NMR for high throughput screening” (priority 2002, published 2004).

Values joined by “and” are separate entries in the source; they are usually repeats but may differ in a detail not shown here. Identical values can stand only once. Counter-ions that a name gives are not always drawn.

Experiment [1] concerns the target T1, PAK4 (Homo sapiens, UniProt O96013).
T1 construct: GST (cleaved yes); made in house; host or cells: E. coli
As to the kind of experiment: 19F NMR binding and competition binding screening and deconvolution against p21-activated kinase. The following applies: 15 μM TFA, 1.5 μM protein.
Description: (§1) D2O was added to the solution (8% final concentration) for the lock signal.
The signal of the non-interacting molecule represents an internal reference that can be used for calibrating with a single experiment the changes in the signal of the spy molecule. […] It should be noted that some compounds in the screening may contain traces of TFA.

In experiment [2] the target is T2, human serum albumin (Homo sapiens, UniProt P02768). As to the kind of experiment: 19F NMR spin-echo competition binding screening against HSA with spy molecule (3) and control molecule (2).
T2 sequence (P02768 25-609): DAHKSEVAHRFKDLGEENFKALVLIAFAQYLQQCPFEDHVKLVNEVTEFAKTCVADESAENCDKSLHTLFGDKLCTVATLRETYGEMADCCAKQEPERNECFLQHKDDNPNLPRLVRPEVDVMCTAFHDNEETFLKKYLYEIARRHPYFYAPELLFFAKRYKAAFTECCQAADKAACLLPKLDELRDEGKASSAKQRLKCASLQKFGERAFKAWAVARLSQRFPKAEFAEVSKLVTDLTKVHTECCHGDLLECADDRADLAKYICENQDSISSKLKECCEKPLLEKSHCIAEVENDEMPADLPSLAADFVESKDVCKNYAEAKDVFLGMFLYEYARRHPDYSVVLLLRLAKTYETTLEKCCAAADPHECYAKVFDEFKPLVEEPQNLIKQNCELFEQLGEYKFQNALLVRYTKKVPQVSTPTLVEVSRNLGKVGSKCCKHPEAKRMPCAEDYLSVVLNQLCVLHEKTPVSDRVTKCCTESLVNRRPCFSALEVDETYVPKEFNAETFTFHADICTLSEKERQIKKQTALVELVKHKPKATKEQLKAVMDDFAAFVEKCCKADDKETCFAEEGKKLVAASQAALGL
Description: as §1
A dual coil {^19F}-{^1H} probe was used with the inner coil tuned to ^19F and the outer coil tuned to ^1H frequency. […] These signals are broad and therefore are not visible in the spectra of the reference and control molecule recorded with a spin-echo scheme. All the spectra were recorded with a weak Waltz-16 proton decoupling applied during the acquisition period. Typically 4-8 dummy scans were recorded for temperature equilibration. Carr-Purcell-Meibom-Gill schemes of different length and long 2τ interval were used before the acquisition period. Chemical shifts were referenced to trifluoroacetic acid.
These techniques also provide the number of binding sites (n) for the reference molecule a parameter that is very important for the competition binding experiments.
For screening, a total spin-echo period (2nτ) was selected for which the signal of the reference molecule is approaching zero.
Experiment [3] concerns the target T2, human serum albumin. Put plainly: Isothermal titration calorimetry with HSA. Further details: purchased Sigma A-3782. Format: binding. As to the method: Isothermal titration calorimetry experiments were performed using an OMEGA titrating microcalorimeter from Microcal, Inc. (Northampton, Mass.). The titrating microcalorimeter consisted of a sample and reference cell held in an adiabatic enclosure. The reference cell was filled with PBS. […] Analyte at 0.8 mM in the same buffer was held in a 250 μL syringe. Thirty injections (8 μL each and 12 seconds/injection) of analyte were made by a computer controlled stepper motor into the sample cell held at 25° C. The syringe stir rate was 400 rpm. Heat adsorbed or released with each injection was measured by a thermoelectric device connected to a Microcal nanovolt preamplifier. Titration isotherms for the binding interactions were comprised of the differential heat flow for each injection. Heat of dilution obtained by injecting analyte into PBS was negligible. Binding isotherms were fit to a single binding site model (T. Wiseman et al., Anal. Biochem., 179, 131-137 (1989)) using an iterative nonlinear least-squares algorithm included with the instrument.
On the technique in general: In ITC the heat of successive injections is recorded.

T1 sequence (O96013 321-572 limits assumed, species assumed): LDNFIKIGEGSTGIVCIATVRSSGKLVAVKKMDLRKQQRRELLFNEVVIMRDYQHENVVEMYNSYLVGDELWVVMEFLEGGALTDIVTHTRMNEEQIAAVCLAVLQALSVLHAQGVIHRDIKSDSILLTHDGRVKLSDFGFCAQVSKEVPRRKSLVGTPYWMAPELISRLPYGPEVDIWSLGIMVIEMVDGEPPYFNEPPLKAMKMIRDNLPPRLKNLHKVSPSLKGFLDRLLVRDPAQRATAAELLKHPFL

For the compound `O=C(O)C(F)(F)F` [trifluoroacetic acid (TFA), trifluoroacetic acid], the “interaction with the protein (19F spectra in absence and presence of protein)” value in experiment [1] was “non-interacting”.
Regarding `Cc1ccc2[nH]cc(CC(N)C(=O)O)c2c1` (centres unmarked) [5-CH3 D,L Trp], the “effect on the 19F signal of the spy molecule (3) (displacement from HSA)” value in experiment [2] (600 nM HSA, 50 μM (3), 25 μM (2), 50 μM 5-CH3 D,L Trp and sucrose, 25 μM (4)) is on record as “do not alter the spectrum of the spy molecule”.
With `FC(F)(F)c1nnc(N2CCNCC2)s1` [(2), 1-[5-(trifluoromethyl)1,3,4-thiadiazol-2-yl]piperazine], in experiment [3] (8 μL injections of 800 μM into 30 μM HSA), the “evidence of binding to HSA by ITC” value is given as “did not find any evidence of binding to HSA”.
As to `O=C(O)c1cccc(F)c1O` [(3), 2-hydroxy 3-fluorobenzoic acid], the Kd in experiment [3] (HSA in PBS + 2% DMSO, 25° C., single binding site model, read-out: ITC derived KD) was 41 ± 3.3 µM; in experiment [2] (KD^app, apparent KD of (3), 50 μM, with 25 μM (4) and 0.6 μM HSA), 327 µM and 300 µM.
